Laboratory results: patent US5306482A, “Radiopharmaceutical bacteriostats” (priority 1992, dated 1994)

How the values were obtained:
[1] = Radiolabelling test of benzalkonium chloride (BAC) with sodium pertechnetate 99mTc in the presence of PABA (ITLC-SG radiochromatography, physical appearance); format: physicochemical; conditions: for effect on PABA / its anti-oxidant properties / physical appearance (precipitate): MDP/PABA kit
Description: A preliminary radiolabelling test of benzalkonium chloride (BAC) with sodium pertechnetate ^99m Tc in the presence of para-aminobenzoic acid (PABA) was conducted.
(§1) Three vials with a total volume of 10 ml from a recently manufactured methylene diphosphonic acid (MDP) kit containing PABA were treated with various amounts of benzalkonium chloride, i.e., 1, 5 and 10 mg which corresponded to 0.01, 0.05 and 0.10% solutions. Radiochromatography was performed using ITLC-SG strips developed in acetone and saline. The vials were tested at 5 and 24 hours post reconstitution. At these two periods, less than 1% free pertechnetate and reduced hydrolyzed technetium was found in the three vials.

[2] = test system: bacterial, fungal and mold growth; experiment: Microbiological test according to USP XXI (Example 15) - overall; format: cell-based
Description: (§2) A microbiological test was conducted according to USP XXI.
Radiopharmaceutical kits employing MDP (methylene diphosphonic acid), IDP(iminodiphosphonic acid) or DTPA(diethylene-triamine-pentacetic acid) and benzylalkonium chloride (BAC), and optionally polymyxin sulfate B (PSB) were prepared, reconstituted and inoculated utilizing standard procedures.

[3] = IDP/PABA/BAC and IDP/PABA/BAC/PSB stress test (radiochromatography); format: physicochemical; conditions: 500 mCi pertechnetate 99mTc
Description: as §1
(§3) Two vials of IDP/PABA/BAC were reconstituted with 500 mCi of pertechnetate ^99m Tc in 10 mL of normal saline and 7 ml of the solution was removed 20 minutes later, The solutions were kept at room temperature for the length of the test. The radiochromatography tests as described in Example 1 were performed at less than 30 minutes and at 7 and 24 hours post reconstitution (PR):
as §3, with “of IDP/PABA/BAC/PSB” for “of IDP/PABA/BAC”, “minutes later.” for “minutes later,”, “30 min” for “30 minutes”, “(PR): […]” for “(PR):”

[4] = Accelerated stability study of MDP/PABA/BAC; format: physicochemical
Description: The formulations were examined in an accelerated stability study which was conducted according to FDA guidelines.

dust culture = experiment: Bacteriostatic effect of BAC in MDP/PABA - sterility test; format: cell-based, wild strains of bacteria and fungi
Description: (§4) A test of the bacteriostatic effects of various concentrations of benzalkonium chloride in MDP/PABA was conducted. A total of fourteen vials, two each of the six concentrations of benzalkonium chloride in MDP/PABA and two control MDP/PABA vials were utilized. A dilute source of microorganisms was prepared by adding 3 drops of a "dust culture" (which was a mixed culture derived from dust and comprised a variety of wild strains of bacteria and fungi typical to ambient conditions) to 1 liter of sterile water for injection. After sufficient agitation, three drops of the dilute culture were added to one vial of each concentration, including one zero vial, and all fourteen vials were left to incubate overnight (approx. 18 hours) at room temperature. One tube (15 mi) of Fluid Thioglycollate medium and one tube (15 mi) of Tryptic Soy medium was inoculated with 1 milliliter from each of the fourteen incubated vials. Each tube was incubated for fourteen days.

[5] = test system: bacterial, fungal and mold growth; experiment: Microbiological test according to USP XXI - overall; format: cell-based; conditions: 10 or 25 μg BAC in a volume of 10 ml
Description: as §2

[6] = MDP/PABA formulated with benzalkonium chloride - stress test (radiochromatography); format: physicochemical; conditions: 10 mg BAC added with 500 mCi pertechnetate 99mTc
Description: Four vials of MDP/PABA were reconstituted with 500 mCi of pertechnetate ^99m Tc in 9 mL of normal saline. Immediately to two vials were added 1 mg/1 mL (0.01%) of benzalkonium chloride solution. Similarly, to the remaining two vials we added 10 mg/1 mL (0.1%).

[7] = MDP/PABA compared with MDP/PABA/BAC - biodistribution; format: in vivo; conditions: rat
Description: A lyophilized batch of MDP/PABA formulated with benzalkonium chloride (MDP/PABA/BAC) was prepared and tested. The bacterial preservative was added prior to freeze-drying. No special precaution was taken in order to avoid excessive air oxidation of the tin.
A side by side study of biodistribution of the two formulations with and without benzalkonium chloride was conducted.
Each lyophilized vial contained 10 mg of MDP, 1 mg of stannous chloride dehydrate, 2 mg of PABA and 50 μg of benzalkonium chloride (BAC). The pH was adjusted to 7.0. […] The haze was filtered off to give a clear solution.
The dosage was 83 μg MDP per rat (130-150 g). Tissue distribution was monitored at 20 minutes, 1 hour, 2 hours, 6 hours and 24 hours post-reconstitution (PR).

[8] = test system: concentrated dust culture; experiment: Bacteriostatic effect of BAC in MDP/PABA - viability check; format: cell-based, wild strains of bacteria and fungi
Description: as §4

[9] = MDP/PABA/BAC formulation - radiochemical stress test; format: physicochemical
Description: Four batches of MDP/PABA/BAC kits were prepared, lyophilized, and tested. The formulations were as follows: […]
One vial from each batch was reconstituted with 500 mCi ^99m Tc-sodium pertechnetate in 10 mL. Twenty minutes later, 7 mL were removed. The vials were left at room temperature for the duration of the test.

[10] = MDP/PABA/BAC radiochemical stress test (Example 3); format: physicochemical; conditions: before filtration; pH 7.0; 50 μg BAC
Description: A radiochemical "stress test" was also performed on three vials of MDP/PABA/BAC. A "non-stressed" vial was tested simultaneously as a control.
Four vials of the lyophilized product were labelled with ^99m Tc-sodium pertechnetate. Each received 500 mCi in 10 mL of technetium from a recent elution. For the first three vials, twenty minutes after reconstitution, 7 mL were removed. The fourth vial remained untouched. The vials were kept at room temperature throughout the length of the experiment.
The radiochemical tests were performed at 0.5, 6.0 and 24 hours post reconstitution.

[11] = MDP/PABA kit vials with 1, 5 and 10 mg BAC (0.01, 0.05, 0.10%), 5 and 24 hours post reconstitution

Compound: CC(C)(C)CC(C)(C)c1ccc(OCCOCC[N+](C)(C)Cc2ccccc2)cc1 [benzethonium chloride]
- effect on PABA / its anti-oxidant properties [1]: did not interfere with the anti-oxidant properties of PABA
- physical appearance (precipitate) [1]: caused the phosphonate to precipitate giving a cloudy solution

Compound: N-alkylbenzyldimethylammonium chloride and/or N-dialkylbenzylmethylammonium chloride [benzalkonium chloride]
- bacteriostasis ([2]; 25 μg BAC and optionally 25 μg polymyxin B in 10 ml): effective bacteriostasis
- effect on stability of the product [3]: did not affect the stability of the product
- effect on shelf life of unreconstituted products [4]: does not diminish the shelf life of unreconstituted products
- Sterility test (growth) (dust culture; 10 μg BAC per vial, control (not inoculated), SOY): NEG.
- Sterility test (growth) (dust culture; 10 μg BAC per vial, control (not inoculated), THIO.): NEG.
- Sterility test (growth) (dust culture; 10 μg BAC per vial, inoculated, SOY): POS.
- Sterility test (growth) (dust culture; 10 μg BAC per vial, inoculated, THIO.): POS.
- growth in both media (dust culture; 10 μg and 25 μg BAC per vial): Growth was observed in both media
- Sterility test (growth) (dust culture; 25 μg BAC per vial, control (not inoculated), SOY): NEG.
- Sterility test (growth) (dust culture; 25 μg BAC per vial, control (not inoculated), THIO.): NEG.
- Sterility test (growth) (dust culture; 25 μg BAC per vial, inoculated, SOY): POS.
- Sterility test (growth) (dust culture; 25 μg BAC per vial, inoculated, THIO.): POS.
- Sterility test (growth) (dust culture; 50 μg BAC per vial, control (not inoculated), SOY): NEG.
- Sterility test (growth) (dust culture; 50 μg BAC per vial, control (not inoculated), THIO.): NEG.
- Sterility test (growth) (dust culture; 50 μg BAC per vial, inoculated, SOY): NEG.
- Sterility test (growth) (dust culture; 50 μg BAC per vial, inoculated, THIO.): NEG.
- Sterility test (growth) (dust culture; 100 μg BAC per vial, control (not inoculated), SOY): NEG.
- Sterility test (growth) (dust culture; 100 μg BAC per vial, control (not inoculated), THIO.): NEG.
- Sterility test (growth) (dust culture; 100 μg BAC per vial, inoculated, SOY): NEG.
- Sterility test (growth) (dust culture; 100 μg BAC per vial, inoculated, THIO.): NEG.
- Sterility test (growth) (dust culture; 250 μg BAC per vial, control (not inoculated), SOY): NEG.
- Sterility test (growth) (dust culture; 250 μg BAC per vial, control (not inoculated), THIO.): NEG.
- Sterility test (growth) (dust culture; 250 μg BAC per vial, inoculated, SOY): NEG.
- Sterility test (growth) (dust culture; 250 μg BAC per vial, inoculated, THIO.): NEG.
- Sterility test (growth) (dust culture; 1000 μg BAC per vial, control (not inoculated), SOY): NEG.
- Sterility test (growth) (dust culture; 1000 μg BAC per vial, control (not inoculated), THIO.): NEG.
- Sterility test (growth) (dust culture; 1000 μg BAC per vial, inoculated, SOY): NEG.
- Sterility test (growth) (dust culture; 1000 μg BAC per vial, inoculated, THIO.): NEG.
- growth (dust culture; greater than 25 μg BAC per vial): no growth
- bacteriostasis [5]: effective bacteriostasis
- effect on stability of the product [6]: did not affect the stability of the product
- biodistribution of the radiopharmaceutical upon addition of BAC [7]: not altered
- effect on PABA / its anti-oxidant properties [1]: did not have a deteriorating effect on PABA
- physical appearance (precipitate) [1]: no precipitate was observed
- free pertechnetate [1, 11]: less than 1%
- reduced hydrolyzed technetium [1, 11]: less than 1%
- effect on PABA / its anti-oxidant properties ([1]; listed as BAC): does not interfere with the anti-oxidant properties of PABA
- Viability check: date growth observed ([8]; 50 μg BAC, control, SOY): 2/2
- Viability check: date growth observed ([8]; 50 μg BAC, control, THIO.): 2/1
- Viability check: date growth observed ([8]; 50 μg BAC, innoc., SOY): 2/2
- Viability check: date growth observed ([8]; 50 μg BAC, innoc., THIO.): 2/1
- Viability check: date growth observed ([8]; 100 μg BAC, control, SOY): 2/2
- Viability check: date growth observed ([8]; 100 μg BAC, control, THIO.): 2/1
- Viability check: date growth observed ([8]; 100 μg BAC, innoc., SOY): 2/6
- Viability check: date growth observed ([8]; 100 μg BAC, innoc., THIO.): 2/1
- effect in viability test ([8]; 250 μg BAC per vial and over): beneficial effect of the benzalkonium chloride was evident
- Viability check: date growth observed ([8]; 250 μg BAC, control, SOY): NEG.
- Viability check: date growth observed ([8]; 250 μg BAC, control, THIO.): NEG.
- Viability check: date growth observed ([8]; 250 μg BAC, innoc., SOY): NEG.
- Viability check: date growth observed ([8]; 250 μg BAC, innoc., THIO.): NEG.
- Viability check: date growth observed ([8]; 1000 μg BAC, control, SOY): NEG.
- Viability check: date growth observed ([8]; 1000 μg BAC, control, THIO.): NEG.
- Viability check: date growth observed ([8]; 1000 μg BAC, innoc., SOY): NEG.
- Viability check: date growth observed ([8]; 1000 μg BAC, innoc., THIO.): NEG.
- effect on reducing capacity of stannous chloride [9]: neither improved nor diminished the reducing capacity of stannous chloride
- haze on addition to the final solution [10]: a slight haze appeared

Compound: polymyxin B
- protection against Gram Negative bacteria ([2]; addition to BAC): additional protection against Gram Negative bacteria
